Test results reported in ChEMBL document CHEMBL1201862, “PubChem BioAssay data set” (2004).
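Tested at 5 concentrations; 48 h exposure; 96-well plates; endpoints linearly interpolated, else capped at highest concentration. The concentration for 50% growth inhibition is given as GI50.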 Activity calls are given as the source filed them. Cut-off read from the data, not from the text of the source: active = GI50 up to about 1.1 µM and inactive = higher.

Key:
Experiment in all cases: inhibition of tumour cell growth, NCI panel, 48 h
NCI-H460 = system: NCI-H460
RXF 393 = system: RXF 393
NCI-H23 = system: NCI-H23
SNB-19 = system: SNB-19
DMS-273 = system: DMS-273
OVCAR-5 = system: OVCAR-5
M14 = system: M14
COLO 205 = system: COLO 205
M19-MEL = system: M19-MEL
HCC 2998 = system: HCC 2998
SN12C = system: SN12C
EKVX = system: EKVX
HOP-92 = system: HOP-92
OVCAR-8 = system: OVCAR-8
U-251 = system: U-251
DU-145 = system: DU-145
MDA-MB-435 = system: MDA-MB-435
MDA-MB-231 = system: MDA-MB-231
PC-3 = system: PC-3
NCI/ADR-RES = system: NCI/ADR-RES

Row | Structure (SMILES) | GI50 (NCI-H460) | GI50 (RXF 393) | GI50 (NCI-H23) | GI50 (SNB-19) | GI50 (DMS-273) | GI50 (OVCAR-5) | GI50 (M14) | GI50 (COLO 205) | GI50 (M19-MEL) | GI50 (HCC 2998) | GI50 (SN12C) | GI50 (EKVX) | GI50 (HOP-92) | GI50 (OVCAR-8) | GI50 (U-251) | GI50 (DU-145) | GI50 (MDA-MB-435) | GI50 (MDA-MB-231) | GI50 (PC-3) | GI50 (NCI/ADR-RES)
1 | CCc1cccc(C)c1NC(=O)C1=C(C)NC(C)=C(C(=O)Nc2c(C)cccc2CC)C1c1ccc([N+](=O)[O-])cc1 | 28.6 µM (inactive) | 24.4 µM (inactive) | 27.3 µM (inactive) | 53.5 µM (inactive) | 38.6 µM (inactive) | > 100 µM (inactive) | 34.8 µM (inactive) | 21.9 µM (inactive) | 38.1 µM (inactive) | 21.3 µM (inactive) | 45.7 µM (inactive) | 27.8 µM (inactive) | 2.75 µM (inactive) | 49.5 µM (inactive) | 60 µM (inactive) | – | – | – | – | –
2 | O=c1[nH]c(=O)n([C@@H]2C[C@H](CO)[C@H](O)C2)cc1/C=C/Br | > 100 µM (inactive) | – | > 100 µM (inactive) | > 100 µM (inactive) | > 100 µM (inactive) | > 100 µM (inactive) | > 100 µM (inactive) | – | > 100 µM (inactive) | > 100 µM (inactive) | – | > 100 µM (inactive) | > 100 µM (inactive) | > 100 µM (inactive) | > 100 µM (inactive) | – | – | – | – | –
3 | COc1cc2c(cc1OC)[C@@H]([C@H](O)c1ccccc1)NCC2 | > 100 µM (inactive) | > 100 µM (inactive) | > 100 µM (inactive) | > 100 µM (inactive) | > 100 µM (inactive) | > 100 µM (inactive) | > 100 µM (inactive) | > 100 µM (inactive) | > 100 µM (inactive) | > 100 µM (inactive) | > 100 µM (inactive) | > 97.7 µM (inactive) | > 74.1 µM (inactive) | > 100 µM (inactive) | > 100 µM (inactive) | – | – | – | – | –
4 | NC1=NN(c2ccccc2)C(=O)C1C(=O)CCC(=O)Nc1cccc(Cl)c1 (stereo unspecified) | > 100 µM (inactive) | > 100 µM (inactive) | > 100 µM (inactive) | > 100 µM (inactive) | > 100 µM (inactive) | > 100 µM (inactive) | > 100 µM (inactive) | > 100 µM (inactive) | > 100 µM (inactive) | > 100 µM (inactive) | > 100 µM (inactive) | > 100 µM (inactive) | > 100 µM (inactive) | > 100 µM (inactive) | > 100 µM (inactive) | – | – | – | – | –
5 | CCOc1ccc(/C(Cl)=C(\C=O)c2ccc(OC)c(OC)c2)cc1OCC | 83.4 µM (inactive) | 31.4 µM (inactive) | 23.3 µM (inactive) | 55.3 µM (inactive) | 45.8 µM (inactive) | > 100 µM (inactive) | > 100 µM (inactive) | 61.5 µM (inactive) | 33 µM (inactive) | 30 µM (inactive) | 44.6 µM (inactive) | 65.2 µM (inactive) | 58.2 µM (inactive) | 46.8 µM (inactive) | 32.9 µM (inactive) | – | – | – | – | –
6 | O=c1cc(-c2ccccc2)nc(/C=C(\O)c2ccncc2)n1-c1ccccc1 | > 100 µM (inactive) | > 100 µM (inactive) | > 100 µM (inactive) | > 100 µM (inactive) | > 100 µM (inactive) | > 100 µM (inactive) | > 100 µM (inactive) | > 100 µM (inactive) | > 100 µM (inactive) | > 100 µM (inactive) | > 100 µM (inactive) | > 100 µM (inactive) | > 100 µM (inactive) | > 100 µM (inactive) | > 100 µM (inactive) | – | – | – | – | –
7 | CC(C)[C@H](COC(C)(C)C)/N=C/N1CSc2ccccc21 | 33 µM (inactive) | 28.7 µM (inactive) | 36.5 µM (inactive) | 37.8 µM (inactive) | 16.8 µM (inactive) | > 100 µM (inactive) | 36.3 µM (inactive) | 18.9 µM (inactive) | 36.6 µM (inactive) | 47.3 µM (inactive) | 28.1 µM (inactive) | 44.1 µM (inactive) | 17.6 µM (inactive) | 35.2 µM (inactive) | 32.5 µM (inactive) | – | – | – | – | –
8 | O=C(/N=C(\Nc1ccccc1)SCCS/C(=N/C(=O)c1cccs1)Nc1ccccc1)c1cccs1 | 31.6 µM (inactive) | 22.6 µM (inactive) | 46.2 µM (inactive) | > 100 µM (inactive) | 58.7 µM (inactive) | > 100 µM (inactive) | 55.8 µM (inactive) | 77.1 µM (inactive) | 53.8 µM (inactive) | 35.1 µM (inactive) | 59.8 µM (inactive) | 92.5 µM (inactive) | 6.37 µM (inactive) | 73.3 µM (inactive) | 96.6 µM (inactive) | – | – | – | – | –
9 | CCCCCCCCCCCCC(Br)C(C)=O (stereo unspecified) | > 100 µM (inactive) | > 100 µM (inactive) | > 100 µM (inactive) | > 100 µM (inactive) | > 100 µM (inactive) | > 100 µM (inactive) | > 100 µM (inactive) | > 100 µM (inactive) | > 100 µM (inactive) | > 100 µM (inactive) | > 100 µM (inactive) | > 100 µM (inactive) | > 100 µM (inactive) | > 100 µM (inactive) | > 100 µM (inactive) | – | – | – | – | –
10 | CN(C)CCCCCNc1c2ccccc2nc2cccc([N+](=O)[O-])c12 | 0.000223 µM (active) | 0.0037 µM (active) | 0.000785 µM (active) | 0.00413 µM (active) | 0.00197 µM (active) | 0.00182 µM (active) | 0.00146 µM (active) | 0.000524 µM (active) | 0.00512 µM (active) | 0.00331 µM (active) | 0.00186 µM (active) | 0.00402 µM (active) | 0.00329 µM (active) | 0.00177 µM (active) | 0.0011 µM (active) | 0.000404 µM (active) | 0.0002 µM (active) | 0.00032 µM (active) | 0.000313 µM (active) | 0.00119 µM (active)
11 | ClCc1ccc(C2OCCO2)cc1 | 19.2 µM (inactive) | > 45.7 µM (inactive) | 12.2 µM (inactive) | > 43 µM (inactive) | 18.3 µM (inactive) | > 48.9 µM (inactive) | 13.6 µM (inactive) | 19.1 µM (inactive) | 14 µM (inactive) | 17.8 µM (inactive) | 16.6 µM (inactive) | > 43.2 µM (inactive) | 18.8 µM (inactive) | 17.5 µM (inactive) | 12.2 µM (inactive) | – | – | – | – | –
12 | COc1ccc(/C(Cl)=C(\C=O)c2ccc(OC)c(OC)c2)cc1OC | 91.4 µM (inactive) | 37.2 µM (inactive) | 76.6 µM (inactive) | > 100 µM (inactive) | > 90.4 µM (inactive) | > 45.6 µM (inactive) | > 100 µM (inactive) | > 100 µM (inactive) | 99.3 µM (inactive) | > 97.1 µM (inactive) | > 100 µM (inactive) | > 100 µM (inactive) | > 100 µM (inactive) | > 94.6 µM (inactive) | > 100 µM (inactive) | > 100 µM (inactive) | > 100 µM (inactive) | > 100 µM (inactive) | > 100 µM (inactive) | > 91.4 µM (inactive)
13 | COC(c1ccccc1)C(c1ccccc1)N1CCOCC1 (stereo unspecified) | > 100 µM (inactive) | > 100 µM (inactive) | > 100 µM (inactive) | > 100 µM (inactive) | > 100 µM (inactive) | > 100 µM (inactive) | > 100 µM (inactive) | > 100 µM (inactive) | > 100 µM (inactive) | > 100 µM (inactive) | > 100 µM (inactive) | > 100 µM (inactive) | > 100 µM (inactive) | > 100 µM (inactive) | > 100 µM (inactive) | – | – | – | – | –
14 | COc1ccc(C(=O)Nc2ccc(S(=O)(=O)NCC(=O)O)cc2)cc1 | > 100 µM (inactive) | > 100 µM (inactive) | > 100 µM (inactive) | > 100 µM (inactive) | > 100 µM (inactive) | > 100 µM (inactive) | > 100 µM (inactive) | > 100 µM (inactive) | > 100 µM (inactive) | > 100 µM (inactive) | > 100 µM (inactive) | > 100 µM (inactive) | > 100 µM (inactive) | > 100 µM (inactive) | > 100 µM (inactive) | – | – | – | – | –
15 | O=C1Nc2ccccc2N=CC1NC(=O)C(c1ccccc1)c1ccccc1 (stereo unspecified) | > 100 µM (inactive) | > 100 µM (inactive) | > 100 µM (inactive) | > 100 µM (inactive) | > 100 µM (inactive) | > 100 µM (inactive) | > 100 µM (inactive) | > 100 µM (inactive) | > 100 µM (inactive) | > 100 µM (inactive) | > 100 µM (inactive) | > 100 µM (inactive) | 32.5 µM (inactive) | > 100 µM (inactive) | > 100 µM (inactive) | – | – | – | – | –
16 | Cc1ccc(NC(=O)NC23CC4CC(CC(F)(C4)C2)C3)cc1 | > 100 µM (inactive) | > 100 µM (inactive) | 99.3 µM (inactive) | > 100 µM (inactive) | 86.3 µM (inactive) | > 100 µM (inactive) | 95.3 µM (inactive) | > 100 µM (inactive) | > 100 µM (inactive) | > 100 µM (inactive) | – | 92.3 µM (inactive) | 55.2 µM (inactive) | > 100 µM (inactive) | > 100 µM (inactive) | – | – | – | – | –
17 | Cc1ccccc1NC(=O)/C(=N\NC(N)=S)C(C#N)c1ccccc1 (stereo unspecified) | > 100 µM (inactive) | > 100 µM (inactive) | > 100 µM (inactive) | > 100 µM (inactive) | > 100 µM (inactive) | > 100 µM (inactive) | > 100 µM (inactive) | > 100 µM (inactive) | > 100 µM (inactive) | > 100 µM (inactive) | > 100 µM (inactive) | > 100 µM (inactive) | > 100 µM (inactive) | > 100 µM (inactive) | > 100 µM (inactive) | – | – | – | – | –
